This note sets out measurements from patent US20230119013A1, “N-CYANOPYRROLIDINES WITH ACTIVITY AS USP30 INHIBITORS” (MISSION THERAPEUTICS LIMITED, priority 2020, published 2023).

Where two headings read alike, the source gives them in different places.

Series [1] is described as follows: Plasma free fraction by equilibrium dialysis. The series is classed as in vitro ADME. The note with it: mouse plasma; read-out: Binding Mouse Plasma fu, p. From the text: (§1) log P: partition coefficient; lipophilicity measurement. log D: distribution co-efficient; lipophilicity measurement. TPSA: topological polar surface area. Turbidimetric solubility: Test compound solution prepared in DMSO diluted into aqueous buffer. Turbidimetry is used as the end-point by measuring absorbance at 620 nm. FaSSIF: simulated intestinal fluid in fasted state measured at pH 6.5. Hep Cl mouse: in vitro hepatocyte clearance in mouse cells. Hep Cl human: in vitro hepatocyte clearance in human cells. Plasma fu,p: The free fraction of a compound in plasma preparation determined by in vitro equilibrium dialysis. It is understood that only unbound (free) compound is capable of engaging with the target. Brain fu,br: The free fraction of a compound in brain homogenate preparation determined by in vitro equilibrium dialysis. It is understood that only unbound (free) compound is capable of engaging with the target. Clu: in vitro clearance. Clu as defined here is the scaled clearance, in turn calculated from the intrinsic clearance. The intrinsic clearance is the predicted clearance due to hepatic metabolic reactions, determined from incubation of a compound in a hepatocyte preparation. […] Cl in vivo clearance: Pharmacokinetic measurement of the volume of plasma (or any matrix) from which a substance is completely removed per unit time.
(In general: Equilibrium dialysis compares concentrations on both sides of a semipermeable membrane.)

The target of the next series is T1, USP30 (Homo sapiens, UniProt Q70CQ3).
T1 construct: purchased Boston Biochem E582
T1 sequence (Q70CQ3 57-517 limits assumed): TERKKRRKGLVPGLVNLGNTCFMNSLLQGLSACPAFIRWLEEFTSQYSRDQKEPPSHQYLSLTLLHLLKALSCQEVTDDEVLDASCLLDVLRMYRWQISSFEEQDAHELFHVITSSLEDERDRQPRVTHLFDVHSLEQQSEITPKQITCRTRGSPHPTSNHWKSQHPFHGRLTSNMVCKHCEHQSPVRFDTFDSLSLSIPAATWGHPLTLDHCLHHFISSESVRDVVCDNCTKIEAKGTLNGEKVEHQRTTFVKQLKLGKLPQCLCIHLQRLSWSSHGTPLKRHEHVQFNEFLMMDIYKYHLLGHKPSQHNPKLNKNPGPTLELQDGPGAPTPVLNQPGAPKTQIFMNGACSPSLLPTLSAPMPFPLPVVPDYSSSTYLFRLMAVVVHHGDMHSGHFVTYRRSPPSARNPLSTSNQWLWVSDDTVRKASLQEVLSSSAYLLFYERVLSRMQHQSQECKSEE
The series can be described thus: USP30 biochemical IC50 assay (fluorescence polarisation). The protocol:
Dilution plates were prepared at 21 times the final concentration (2100 μM for a final concentration of 100 μM) in 50% DMSO in a 96-well polypropylene V-bottom plate (Greiner #651201). A typical 8-point dilution series would be 100, 30, 10, 3, 1, 0.3, 0.1, 0.03 μM final. Reactions were performed in duplicate in black 384 well plates (small volume, Greiner 784076) in a final reaction volume of 21 μl. Either 1 μl of 50% DMSO or diluted compound was added to the plate. USP30 (Boston Biochem #E582) was diluted in reaction buffer (40 mM Tris, pH 7.5, 0.005% Tween 20, 0.5 mg/ml BSA, 5 mM beta-mercaptoethanol) to achieve a final assay concentration of 4 nM, and 10 μl of diluted USP30 was added to the compound. Enzyme and compound were incubated for 30 min at room temp. Reactions were initiated by the addition of 50 nM of TAMRA labelled peptide linked to ubiquitin via an iso-peptide bond as fluorescence polarisation substrate. Reactions were read immediately after addition of substrate and following a 2-hour incubation at room temperature. Readings were performed on a Pherastar Plus (BMG Labtech). λ Excitation 540 nm; Emission 590 nm.
For orientation: In fluorescence polarisation assays a small probe gives low polarisation when free and higher when bound to something large.

The next series in a line: Mouse plasma stability. The series is classed as in vitro ADME. The conditions noted are these: read-out: Stability Mouse plasma t1/2.
The test system of a further series is TOM20 ubiquitylation. The series can be described thus: TOM20-ubiquitylation assay. The series is classed as cell-based, human. The note with it: antimycin A/oligomycin mitophagy trigger. From the text: Human cell lines can be challenged with mitochondrial depolarizing agents (ionophores (eg. CCCP, valinomycin), mitochondrial complex inhibitors (oligomycin, antimycin A)) to induce ubiquitylation of TOM20, which is then further promoted in the presence of USP30 inhibitors. TOM20 ubiquitylation is subsequently assessed through western blotting of the cell lysates, with TOM20 ubiquitylation adduct detection possible due to an 8 kDa molecule weight increase for each molecule of ubiquitin added, resulting in laddering of a TOM20 immunoreactive band. TOM20-ubiquitylation levels can be quantified using chemiluminescence densitometry of laddered immunoreactive bands.

For a further series, the target named is T2, UCHL1 (Homo sapiens, UniProt P09936).
T2 sequence (P09936 1-223): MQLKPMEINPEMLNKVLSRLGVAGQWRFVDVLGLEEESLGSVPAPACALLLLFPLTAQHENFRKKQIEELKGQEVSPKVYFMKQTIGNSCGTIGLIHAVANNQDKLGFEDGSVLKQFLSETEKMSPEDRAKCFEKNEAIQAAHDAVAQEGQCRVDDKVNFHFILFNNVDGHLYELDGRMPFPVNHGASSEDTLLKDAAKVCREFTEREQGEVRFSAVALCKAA
The series can be described thus: DUB IC50 UCHL1. The series is classed as biochemical.

Series [2] deals with HCT116 human colorectal carcinoma cells. The series can be described thus: In vitro cytotoxicity (Cell Tox), alamarBlue. The format is cell-based. The note with it: HCT-116, 96-hour continual compound exposure. The method, then:
In Vitro Cytotoxicity (Cell Tox): Measured in HCT116 human colorectal carcinoma cells using alamarBlue™ as the assay endpoint. Compound cytotoxicity was measured over a period of 96-hour continual compound exposure.
Background: The colour change of resazurin is a common sign of viable cells or microbes.

The next series relates to hepatocyte. The series can be described thus: Hepatocyte clearance mouse. The conditions noted are these: mouse hepatocytes. The series is classed as in vitro ADME.
Text: as §1

For series [3], the system named is T3, USP2, USP10, USP16, USP21, USP22, USP25, USP28.
T3 construct: DUB IC50 (μM) USP2, USP10, USP16, USP21, USP22, USP25, USP28; other: range over the seven DUBs
The series can be described thus: DUB IC50, seven DUBs. The series is classed as biochemical. The note with it: range over the seven DUBs.

Series [4] relates to USP2, USP10, USP16, USP21, USP22, USP25, USP28. The series can be described thus: DUB IC50, seven DUBs. The series is classed as biochemical. The conditions noted are these: for DUB selectivity preference for USP30 v 7 DUBs: range over the seven DUBs.
For series [5], the system named is T4, cathepsins B, K, L, S and V.
T4 construct: Cathepsin IC50 (μM) B, K, L, S, V; other: range over the five cathepsins
In words: Cathepsin IC50, summary over B, K, L, S, V. The format is biochemical. The conditions noted are these: range over the five cathepsins.

The subject of series [6] is cathepsins B, K, L, S and V. The series can be described thus: Cathepsin IC50, summary over B, K, L, S, V. The format is biochemical. The note with it: K, L.

The IC50 is the midpoint of a concentration-inhibition curve. A word on the EC50: it is the midpoint of the concentration-response curve. Low values mean a more potent agent, high ones a less potent agent. As to `COC[C@H]1C[C@@H](NC(=O)c2ncc(-c3cccc(OC(F)(F)F)c3)o2)CN1C#N` [Example 3, N-((3R,5R)-1-Cyano-5-(methoxymethyl)pyrrolidin-3-yl)-5-(3-(trifluoromethoxy)phenyl)oxazole-2-carboxamide], the fraction unbound in series [1] turned out to be 0.036. At USP30 (biochemical assay), the “fold more potent against USP30 than Reference Example A” value is listed as 9 fold, the “fold more potent against USP30 than Reference Example B” value came out at 22 fold, the “fold more potent against USP30 than Reference Example C” value is 39 fold and the “fold more potent against USP30 than Reference Example D” value worked out at 550 fold. The IC50 on USP30 (read-out: USP30 IC50) was 0.008 µM. For the same molecule, the half-life in the series “Mouse plasma stability” is greater than 2 h. For the same molecule, the “TOM20-Ub 1.5-fold gain EC1.5x (μM)” value in the series with TOM20 ubiquitylation was 0.210 (n = 1) μM. Besides, at UCHL1, the “DUB selectivity preference for USP30 v UCHL1” value is listed as 37500 and the IC50 was greater than 300 µM. The same molecule came in with an EC50 in [2] of 23900 nM. For the same molecule, the “Hepatocyte Cl mouse scaled Clu” value with hepatocyte is reported as 97.4 mL/min/kg. The 50% inhibitory concentration (IC50) in series [3] is greater than 300 µM. Moreover, the “DUB selectivity preference for USP30 v 7 DUBs” value in [4] was greater than 37500.

With `N#Cc1ccc(-c2cnc(NC(=O)[C@H]3CCN(C#N)C3)s2)cc1OC(F)(F)F` [B, reference compound], at USP30 (read-out: DUB IC50 (μM) USP30), the IC50 was 0.172 µM. On USP30 (read-out: USP30 IC50), the IC50 is 0.172 µM. Besides, at UCHL1, the “DUB selectivity preference for USP30 v UCHL1” value worked out at 4.5; the midpoint of inhibition, the IC50, lay at 0.77 µM; the “fold more potent against USP30 than UCHL1” value is given as 4.5 fold.

`CC1CC(C(=O)Nc2ncc(-c3ccccc3)s2)CN1C#N` (stereo not drawn) [D, reference compound]: at UCHL1, the “fold more potent against USP30 than UCHL1” value is on record as 1.5 fold.

For the molecule `COc1cccc(-c2cc(C(=O)N[C@@H]3CCN(C#N)C3)on2)c1` [Reference Example A, reference compound], the IC50 in series [3] lay within 0.19 to 9.9 µM; in [5], 0.79 to 8.8 µM. The “fold more potent against USP30 than against each of the seven DUBs, at a minimum” value in series [4] (USP2, USP10, USP16, USP21, USP22, USP25 and USP28) was 2.7 fold. Moreover, the “DUB selectivity preference for USP30 v 7 DUBs” value in series [4] is 2.7-141. For the same molecule, the “fold more potent against USP30 than against each of the cathepsins, at a minimum” value in series [6] (cathepsins B, S and V) was 11 fold. Further, in series [6] (range over cathepsins B, S, V), the “Selectivity preference for USP30 v cathepsins” value is 11-126.

On to `N#CN1CC[C@H](C(=O)Nc2ncc(-c3ccccc3)s2)C1` [C, reference compound], for which the “fold more potent against USP30 than UCHL1” value at UCHL1 is 0.8 fold.
